Source: US4657916A, “Quinoline-N-oxide derivative and pharmaceutical composition” (Kyowa Hakko Kogyo Co., Ltd., priority 1984, dated 1987)
Structures can show the parent of a compound that is named as a salt.

biological target: T1, 5-lipoxygenase (Rattus norvegicus, UniProt P12527); test: Inhibiting action on leukocyte 5-lipoxygenase in vitro (RBL-1 cells as enzyme source, 14C-arachidonic acid); type: biochemical, rats; details: 1 μM compound; RBL-1 rat cells; 37° C., 5 minutes; read-out: 5-lipoxygenase-inhibiting activity: Percent inhibition at 1 μM compound concentration
T1 construct: (RBL-1, ATCC NO. CRL 1378) cells of rats were used as a 5-lipoxygenase enzyme source; endogenous in cells; host or cells: RBL-1 (rat basophilic leukemia) cells, ATCC CRL 1378
T1 sequence (P12527 1-673): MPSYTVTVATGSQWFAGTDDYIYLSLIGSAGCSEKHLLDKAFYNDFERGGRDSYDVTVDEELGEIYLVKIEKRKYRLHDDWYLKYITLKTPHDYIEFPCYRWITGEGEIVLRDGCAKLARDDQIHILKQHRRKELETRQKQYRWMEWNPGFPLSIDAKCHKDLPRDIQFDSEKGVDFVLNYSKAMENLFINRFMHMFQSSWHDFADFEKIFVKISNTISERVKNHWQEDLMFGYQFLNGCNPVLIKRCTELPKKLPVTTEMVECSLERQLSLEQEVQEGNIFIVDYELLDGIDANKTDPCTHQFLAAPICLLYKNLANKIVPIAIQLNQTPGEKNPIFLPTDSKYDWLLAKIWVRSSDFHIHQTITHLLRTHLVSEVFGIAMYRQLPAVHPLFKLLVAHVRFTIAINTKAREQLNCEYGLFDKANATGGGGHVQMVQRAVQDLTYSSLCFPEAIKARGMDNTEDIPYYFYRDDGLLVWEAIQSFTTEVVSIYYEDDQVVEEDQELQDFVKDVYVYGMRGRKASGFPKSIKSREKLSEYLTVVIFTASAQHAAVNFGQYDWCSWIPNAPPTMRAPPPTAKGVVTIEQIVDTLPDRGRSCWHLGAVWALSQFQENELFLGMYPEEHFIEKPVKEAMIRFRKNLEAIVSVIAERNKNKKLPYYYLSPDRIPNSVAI
Protocol: Inhibiting actions of test compounds shown in Table 2 on lipoxygenase in vitro were determined according to the following procedure.
Procedure for determining inhibiting actions on leukocyte 5-lipoxygenase:
Determination was conducted according to the modified B. A. Jakschik et al procedure [Biochim. Biophys. Res. Commun. 95, 103 (1980)]. That is, Leukemic basophilic granulocyte (RBL-1, ATCC NO. CRL 1378) cells of rats were used as a 5-lipoxygenase enzyme source, and the cells and a test compound were contacted with each other in a 0.07 M tris hydrochloric acid buffer solution in the presence of 0.7 μm moles of calcium chloride at 37° C. for 5 minutes, and then 20 μmoles of [^14 C]-arachidonic acid was added thereto. The mixture was subjected to reaction at 37° C. for 5 minutes. The reaction product was extracted with ethyl acetate/methanol/0.2 M citric acid (30/4/1) and the extract was subjected to a thin layer chromatographic separation (developing solvent: petroleum ether/ethyl ether/acetic acid=50/50/1), and the spot of […] in the product was scraped off and ^14 C was measured by a liquid scintillation counter.

Row | SMILES | inhibition at 1 µM
1 | [O-][n+]1c(CCCCCCCCCCC=NO)cc(OCc2ccccc2)c2ccccc21 [Example 11] | 36.6%
2 | NCCCCCCCCCCCc1cc(OCc2ccccc2)c2ccccc2[n+]1[O-] [Example 9, 4-benzyloxy-2-(11-aminoundecyl) quinoline-N-oxide] | 27%
3 | O=CCCCCCCCCCCc1cc(OCc2ccccc2)c2ccccc2[n+]1[O-] [Example 7, 4-benzyloxy-2-(10-formyldecyl) quinoline-N-oxide] | 33.1%
4 | [O-][n+]1c(CCCOC2CCCCO2)cc(OCc2ccccc2)c2ccccc21 (stereo not shown) [Example 13, 4-benzyloxy-2-[3-(2-tetrahydropyranyloxy)propyl]quinoline-Noxide] | 11.5%
5 | [O-][n+]1c(CCCO)cc(OCc2ccccc2)c2ccccc21 [Example 2, 4-benzyloxy-2-(3-hydroxypropyl) quinoline-N-oxide] | 2.7%
6 | [O-][n+]1c(CCCCCCCCCCCNCc2ccccc2)cc(OCc2ccccc2)c2ccccc21 [Example 10, 4-benzyloxy-2-[11-(N-benzylaminoundecyl)] quinoline-N-oxide] | 32.4%
7 | [O-][n+]1c(CCCCCCCCCCCOC2CCCCO2)cc(OCc2ccccc2)c2ccccc21 (stereo not shown) [Example 6, 4-benzyloxy-2-[11-(2-tetrahydropyranyloxy)undecyl] quinoline-N-oxide] | 20%
8 | COC(CCCCCCCCCCc1cc(OCc2ccccc2)c2ccccc2[n+]1[O-])OC [Example 12, 4-benzyloxy-2-(11,11-dimethoxyundecyl) quinoline-N-oxide] | 37.2%
9 | [O-][n+]1c(CCCCCCCCCCCO)cc(OCc2ccccc2)c2ccccc21 [1-(2), 4-benzyloxy-2-(11-hydroxyundecyl) quinoline-N-oxide] | 7.7%
10 | O=C(O)CCCCCCCCCCc1cc(OCc2ccccc2)c2ccccc2[n+]1[O-] [Example 8, 4-benzyloxy-2-(10-carboxydecyl) quinoline-N-oxide] | 27.3%
11 | [O-][n+]1c(CCCOC2CCCCO2)cc(O)c2ccccc21 (stereo not shown) [Example 4, 4-hydroxy-2-[3-(2-tetrahydropyranyloxy)propyl] quinoline-N-oxide] | 1.6%

same assay, conditions: RBL-1 rat cells; 37° C., 5 minutes

Row | SMILES | IC50
12 | NCCCCCCCCCCCc1cc(O)c2ccccc2[n+]1[O-] [Example 16, 4-hydroxy-2-(11-aminoundecyl) quinoline-Noxide. hydrochloride] | 250 nM
13 | O=C(O)CCCCCCCCCCc1cc(O)c2ccccc2[n+]1[O-] [Example 15, 4-hydroxy-2-(10-carboxydecyl) quinoline-Noxide] | 2700 nM
14 | COC(CCCCCCCCCCc1cc(O)c2ccccc2[n+]1[O-])OC [Example 19, 4-hydroxy-2-(11,11-dimethoxyundecyl) quinoline-Noxide] | 180 nM
15 | [O-][n+]1c(CCCCCCCCCCCO)c(Br)c(O)c2ccccc21 [Example 5, 3-bromo-4-hydroxy-2-(11-hydroxyundecyl) quinoline-N-oxide] | 220 nM
16 | [O-][n+]1c(CCCCCCCCCCCNCc2ccccc2)cc(O)c2ccccc21 [Example 17, 4-hydroxy-2-[11-(N benzylaminoundecyl)] quinoline-Noxide] | 270 nM
17 | [O-][n+]1c(CCCCCCCCCCCOC2CCCCO2)cc(O)c2ccccc21 (stereo not shown) [Example 14, 4-hydroxy-2-[11-(2-tetrahydropyranyloxy)undecyl] quinoline-N-oxide] | 160 nM
18 | [O-][n+]1c(CCCCCCCCCCCO)cc(O)c2ccccc21 [Example 3, 4-hydroxy-2-(11-hydroxyundecyl) quinoline-N-oxide] | 280 nM
19 | O=CCCCCCCCCCCc1cc(O)c2ccccc2[n+]1[O-] [Example 20, 4-hydroxy-2-(10-formyldecyl) quinoline-Noxide] | 1700 nM
